Measured values reported in patent publication US7074789B2, “Kinase inhibitors” (Amgen Inc., priority 1999, dated 2006).
Read-outs that look alike come from different tables or passages of the source.

Columns and labels:
Type in all cases: biochemical
Kdr = molecular target: T1, Kdr (Homo sapiens, UniProt P35968); experiment: Kinase inhibition assay (33P transfer), Kdr; conditions: read-out: KDR-1
T1 construct: Kinases are expressed as either kinase domains or full length constructs; made in house
Procedure, shortened: (§1)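 Recombinant kinase-domain or full-length fusion proteins (GST or His tag) served as enzyme. Substrate poly(Glu,Tyr) 4:1 or poly(Arg,Ser) 3:1 was bound to the plate; transferred 33P was read by liquid scintillation following acid washing.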

Zap-70 = molecular target: T2, Zap-70 (Homo sapiens, UniProt P43403); experiment: Kinase inhibition assay (33P transfer), Zap-70; conditions: read-out: Zap-1
T2 construct: Kinases are expressed as either kinase domains or full length constructs; made in house
T2 sequence (P43403 1-619): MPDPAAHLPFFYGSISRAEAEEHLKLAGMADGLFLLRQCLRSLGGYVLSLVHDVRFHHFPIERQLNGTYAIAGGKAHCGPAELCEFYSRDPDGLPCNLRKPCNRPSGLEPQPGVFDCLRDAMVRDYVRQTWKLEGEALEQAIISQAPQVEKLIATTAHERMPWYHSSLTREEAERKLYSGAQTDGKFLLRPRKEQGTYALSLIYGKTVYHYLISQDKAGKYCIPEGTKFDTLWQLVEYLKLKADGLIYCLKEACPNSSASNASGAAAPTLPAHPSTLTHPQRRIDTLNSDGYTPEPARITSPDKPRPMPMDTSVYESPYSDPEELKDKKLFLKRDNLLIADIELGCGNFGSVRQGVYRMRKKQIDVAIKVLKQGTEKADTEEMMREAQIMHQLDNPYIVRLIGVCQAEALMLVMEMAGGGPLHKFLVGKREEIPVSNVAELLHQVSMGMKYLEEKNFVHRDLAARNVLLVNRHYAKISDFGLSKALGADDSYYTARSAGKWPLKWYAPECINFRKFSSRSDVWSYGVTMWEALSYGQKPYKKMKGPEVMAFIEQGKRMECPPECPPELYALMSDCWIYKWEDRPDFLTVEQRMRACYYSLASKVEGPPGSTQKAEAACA
Procedure, shortened: as §1

AKT = molecular target: T3, AKT (Homo sapiens, UniProt Q9Y243); experiment: Kinase inhibition assay (33P transfer), AKT; conditions: Table 2, kinase inhibition class; read-out: AKT3-1
T3 construct: Kinases are expressed as either kinase domains or full length constructs; made in house
T3 sequence (Q9Y243 whole entry, the tested form may be a part): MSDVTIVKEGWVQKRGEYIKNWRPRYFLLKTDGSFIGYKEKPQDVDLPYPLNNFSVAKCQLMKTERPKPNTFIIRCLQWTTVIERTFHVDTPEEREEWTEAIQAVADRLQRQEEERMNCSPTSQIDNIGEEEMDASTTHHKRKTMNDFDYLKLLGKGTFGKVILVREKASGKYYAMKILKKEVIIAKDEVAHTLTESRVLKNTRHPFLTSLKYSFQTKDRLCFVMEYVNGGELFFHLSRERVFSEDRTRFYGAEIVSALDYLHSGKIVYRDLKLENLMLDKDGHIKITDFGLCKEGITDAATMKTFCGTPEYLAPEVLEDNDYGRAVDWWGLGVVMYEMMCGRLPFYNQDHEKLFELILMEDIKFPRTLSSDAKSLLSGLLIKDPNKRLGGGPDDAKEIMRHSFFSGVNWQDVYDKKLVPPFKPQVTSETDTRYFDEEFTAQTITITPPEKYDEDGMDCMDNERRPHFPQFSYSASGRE
Procedure, shortened: as §1

Itk = molecular target: T4, Itk (Homo sapiens, UniProt Q08881); experiment: Kinase inhibition assay (33P transfer), Itk; conditions: read-out: Itk-1
T4 construct: Kinases are expressed as either kinase domains or full length constructs; made in house
T4 sequence (Q08881 1-620): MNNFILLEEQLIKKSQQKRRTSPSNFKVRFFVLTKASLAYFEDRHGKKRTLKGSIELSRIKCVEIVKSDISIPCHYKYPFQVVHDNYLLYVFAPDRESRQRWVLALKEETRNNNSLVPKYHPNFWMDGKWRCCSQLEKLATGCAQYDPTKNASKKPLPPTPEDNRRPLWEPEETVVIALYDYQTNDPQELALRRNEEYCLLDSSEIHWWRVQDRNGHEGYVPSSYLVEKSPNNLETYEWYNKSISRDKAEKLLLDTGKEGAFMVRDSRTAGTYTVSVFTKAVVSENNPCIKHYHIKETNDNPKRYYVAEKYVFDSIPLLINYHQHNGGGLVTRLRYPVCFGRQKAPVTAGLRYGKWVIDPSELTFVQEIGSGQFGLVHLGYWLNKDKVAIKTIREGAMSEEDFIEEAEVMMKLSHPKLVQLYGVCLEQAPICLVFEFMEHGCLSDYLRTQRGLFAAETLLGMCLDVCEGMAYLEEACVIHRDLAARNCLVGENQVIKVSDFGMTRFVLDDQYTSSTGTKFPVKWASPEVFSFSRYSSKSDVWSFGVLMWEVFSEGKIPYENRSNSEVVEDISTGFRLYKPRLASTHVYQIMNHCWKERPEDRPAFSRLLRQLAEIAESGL
Procedure, shortened: (§2)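 Kinase domains or full-length enzymes, GST- or polyHis-tagged, were expressed in E. coli or baculovirus High Five cells and affinity-purified. Transfer of 33PO4 from ATP onto plate-bound poly(Glu,Tyr) 4:1 or poly(Arg,Ser) 3:1 was counted by liquid scintillation after a 0.5% phosphoric acid wash. IC50 = concentration halving incorporation.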

EGFR = molecular target: T5, EGFR (Homo sapiens, UniProt P00533); experiment: Kinase inhibition assay (33P transfer), EGFR; conditions: Table 2, kinase inhibition class; read-out: EGFR-1
T5 construct: Kinases are expressed as either kinase domains or full length constructs; made in house
Procedure, shortened: as §2

c-Met = molecular target: T6, c-Met (Homo sapiens, UniProt P08581); experiment: Kinase inhibition assay (33P transfer), c-Met; conditions: Table 2, kinase inhibition class; read-out: Met-1
T6 construct: Kinases are expressed as either kinase domains or full length constructs; made in house
Procedure, shortened: as §2

EPHB4 = molecular target: T7, EPHB4 (Homo sapiens, UniProt P54760); experiment: Kinase inhibition assay (33P transfer), EPHB4; conditions: read-out: EPHB4-1
T7 construct: Kinases are expressed as either kinase domains or full length constructs; made in house
T7 sequence (P54760 16-987): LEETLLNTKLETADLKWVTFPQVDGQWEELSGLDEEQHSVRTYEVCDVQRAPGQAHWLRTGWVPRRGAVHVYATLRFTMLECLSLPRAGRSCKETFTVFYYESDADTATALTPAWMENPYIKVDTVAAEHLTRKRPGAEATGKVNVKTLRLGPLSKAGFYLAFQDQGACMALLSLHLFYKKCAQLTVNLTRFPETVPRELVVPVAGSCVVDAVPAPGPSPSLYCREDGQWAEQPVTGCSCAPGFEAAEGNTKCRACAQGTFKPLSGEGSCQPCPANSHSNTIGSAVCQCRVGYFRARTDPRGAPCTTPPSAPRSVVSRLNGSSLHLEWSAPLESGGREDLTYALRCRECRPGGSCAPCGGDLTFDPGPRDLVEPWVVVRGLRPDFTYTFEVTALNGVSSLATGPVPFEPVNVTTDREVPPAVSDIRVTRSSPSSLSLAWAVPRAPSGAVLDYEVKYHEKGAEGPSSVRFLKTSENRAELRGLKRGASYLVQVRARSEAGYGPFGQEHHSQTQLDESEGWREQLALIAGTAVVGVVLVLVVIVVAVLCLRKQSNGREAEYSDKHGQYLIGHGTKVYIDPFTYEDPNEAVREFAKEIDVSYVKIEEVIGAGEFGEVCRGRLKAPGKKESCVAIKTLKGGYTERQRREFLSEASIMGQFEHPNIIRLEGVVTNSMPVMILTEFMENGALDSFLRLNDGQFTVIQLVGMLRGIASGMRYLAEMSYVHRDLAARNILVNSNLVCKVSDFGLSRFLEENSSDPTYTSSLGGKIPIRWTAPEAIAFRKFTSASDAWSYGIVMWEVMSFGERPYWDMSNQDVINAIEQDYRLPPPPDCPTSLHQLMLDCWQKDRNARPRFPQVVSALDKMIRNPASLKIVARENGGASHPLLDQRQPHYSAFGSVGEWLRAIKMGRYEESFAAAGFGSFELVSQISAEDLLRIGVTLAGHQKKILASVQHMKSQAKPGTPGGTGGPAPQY

Lck = molecular target: T8, Lck (Homo sapiens, UniProt P06239); experiment: Kinase inhibition assay (33P transfer), Lck; conditions: read-out: Lck-1
T8 construct: Kinases are expressed as either kinase domains or full length constructs; made in house
Procedure, shortened: as §1

IGFR-1 [1] = molecular target: T9, IGFR-1 (Homo sapiens, UniProt P08069); experiment: Kinase inhibition assay (33P transfer), IGFR-1; conditions: Table 2, kinase inhibition class
T9 construct: Kinases are expressed as either kinase domains or full length constructs; made in house
T9 sequence (P08069 31-1367): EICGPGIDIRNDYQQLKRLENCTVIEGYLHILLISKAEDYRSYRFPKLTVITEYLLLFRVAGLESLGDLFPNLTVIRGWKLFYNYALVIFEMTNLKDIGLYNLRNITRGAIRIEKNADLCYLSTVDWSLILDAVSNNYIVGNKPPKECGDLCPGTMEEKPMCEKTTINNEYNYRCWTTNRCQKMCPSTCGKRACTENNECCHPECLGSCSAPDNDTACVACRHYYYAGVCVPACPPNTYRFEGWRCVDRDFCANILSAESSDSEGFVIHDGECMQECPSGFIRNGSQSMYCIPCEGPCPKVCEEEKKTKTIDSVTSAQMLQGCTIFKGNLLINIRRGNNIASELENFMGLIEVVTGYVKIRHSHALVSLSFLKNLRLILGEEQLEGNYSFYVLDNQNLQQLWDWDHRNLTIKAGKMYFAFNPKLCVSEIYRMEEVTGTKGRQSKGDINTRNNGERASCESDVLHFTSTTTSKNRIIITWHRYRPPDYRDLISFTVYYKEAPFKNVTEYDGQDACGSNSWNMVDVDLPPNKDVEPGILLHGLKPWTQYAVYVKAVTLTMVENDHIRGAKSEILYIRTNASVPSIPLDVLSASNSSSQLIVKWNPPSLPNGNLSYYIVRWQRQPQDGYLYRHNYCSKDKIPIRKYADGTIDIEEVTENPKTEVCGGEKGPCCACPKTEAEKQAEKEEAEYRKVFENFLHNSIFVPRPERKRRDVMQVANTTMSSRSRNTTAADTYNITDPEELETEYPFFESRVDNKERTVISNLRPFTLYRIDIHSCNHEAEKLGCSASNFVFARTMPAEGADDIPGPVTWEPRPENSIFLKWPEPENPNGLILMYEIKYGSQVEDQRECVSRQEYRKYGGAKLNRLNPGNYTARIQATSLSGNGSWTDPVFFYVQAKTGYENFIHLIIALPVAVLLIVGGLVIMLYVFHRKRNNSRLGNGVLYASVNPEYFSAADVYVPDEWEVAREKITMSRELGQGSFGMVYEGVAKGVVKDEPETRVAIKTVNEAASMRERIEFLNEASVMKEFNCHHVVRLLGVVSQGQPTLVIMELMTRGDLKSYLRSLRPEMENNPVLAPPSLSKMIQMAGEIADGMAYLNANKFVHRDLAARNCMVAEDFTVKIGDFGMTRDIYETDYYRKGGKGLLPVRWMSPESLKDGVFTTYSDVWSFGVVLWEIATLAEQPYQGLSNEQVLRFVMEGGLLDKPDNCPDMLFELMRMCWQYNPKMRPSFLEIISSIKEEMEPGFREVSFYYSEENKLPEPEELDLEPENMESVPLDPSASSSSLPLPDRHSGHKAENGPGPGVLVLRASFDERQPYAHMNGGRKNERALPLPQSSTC

Flt-1 = molecular target: T10, Flt-1 (Homo sapiens, UniProt P17948); experiment: Kinase inhibition assay (33P transfer), Flt-1
T10 construct: Kinases are expressed as either kinase domains or full length constructs; made in house
T10 sequence (P17948 27-1338, species assumed): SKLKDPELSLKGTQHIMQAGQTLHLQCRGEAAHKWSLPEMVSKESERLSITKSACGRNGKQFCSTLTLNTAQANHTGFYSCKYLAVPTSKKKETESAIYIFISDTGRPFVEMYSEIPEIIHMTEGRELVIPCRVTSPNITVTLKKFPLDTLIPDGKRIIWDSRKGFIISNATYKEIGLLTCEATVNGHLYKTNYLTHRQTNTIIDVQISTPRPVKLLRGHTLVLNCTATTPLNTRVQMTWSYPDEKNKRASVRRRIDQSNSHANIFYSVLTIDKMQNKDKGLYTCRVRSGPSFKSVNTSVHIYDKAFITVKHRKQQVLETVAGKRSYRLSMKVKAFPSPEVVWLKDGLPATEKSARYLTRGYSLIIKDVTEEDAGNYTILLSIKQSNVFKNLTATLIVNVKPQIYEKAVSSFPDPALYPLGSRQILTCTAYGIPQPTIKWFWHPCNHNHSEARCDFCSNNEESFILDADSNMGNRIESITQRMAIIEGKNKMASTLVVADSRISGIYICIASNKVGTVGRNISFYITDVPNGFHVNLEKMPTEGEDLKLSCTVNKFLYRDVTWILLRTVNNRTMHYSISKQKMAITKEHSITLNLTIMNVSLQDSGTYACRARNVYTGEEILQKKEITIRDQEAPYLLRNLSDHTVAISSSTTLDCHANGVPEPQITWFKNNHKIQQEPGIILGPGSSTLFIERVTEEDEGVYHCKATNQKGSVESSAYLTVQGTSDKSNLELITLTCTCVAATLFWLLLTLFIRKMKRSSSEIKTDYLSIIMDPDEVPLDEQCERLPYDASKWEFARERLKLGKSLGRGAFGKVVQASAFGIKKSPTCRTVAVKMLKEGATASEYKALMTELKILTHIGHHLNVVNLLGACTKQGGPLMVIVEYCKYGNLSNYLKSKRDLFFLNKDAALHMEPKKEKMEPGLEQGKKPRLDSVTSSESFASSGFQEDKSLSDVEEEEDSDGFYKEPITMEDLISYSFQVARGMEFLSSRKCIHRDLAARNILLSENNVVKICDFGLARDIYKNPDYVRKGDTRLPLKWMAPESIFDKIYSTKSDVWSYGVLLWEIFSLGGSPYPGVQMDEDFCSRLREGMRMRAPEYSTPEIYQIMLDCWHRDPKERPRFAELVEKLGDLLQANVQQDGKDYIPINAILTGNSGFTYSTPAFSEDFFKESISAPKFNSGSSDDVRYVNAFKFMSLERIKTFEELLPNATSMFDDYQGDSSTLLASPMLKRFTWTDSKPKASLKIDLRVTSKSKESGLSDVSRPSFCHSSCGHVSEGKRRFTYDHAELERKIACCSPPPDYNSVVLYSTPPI
Procedure, shortened: as §2

ErbB2 = molecular target: T11, ErbB2 (Homo sapiens, UniProt P04626); experiment: Kinase inhibition assay (33P transfer), ErbB2; conditions: read-out: ErbB2-2
T11 construct: Kinases are expressed as either kinase domains or full length constructs; made in house
Procedure, shortened: as §2

Fyn = molecular target: T12, Fyn (Homo sapiens, UniProt P06241); experiment: Kinase inhibition assay (33P transfer), Fyn; conditions: read-out: Fyn-1
T12 construct: Kinases are expressed as either kinase domains or full length constructs; made in house
Procedure, shortened: as §2

Hck-1 = molecular target: T13, Hck-1 (Homo sapiens, UniProt P08631); experiment: Kinase inhibition assay (33P transfer), Hck; conditions: Table 6, Hck-1 kinase inhibition class
T13 construct: Kinases are expressed as either kinase domains or full length constructs; made in house

Tek = molecular target: T14, Tek (Homo sapiens, UniProt Q02763); experiment: Kinase inhibition assay (33P transfer), Tek; conditions: read-out: Tek-1
T14 construct: Kinases are expressed as either kinase domains or full length constructs; made in house
T14 sequence (Q02763 23-1124, species assumed): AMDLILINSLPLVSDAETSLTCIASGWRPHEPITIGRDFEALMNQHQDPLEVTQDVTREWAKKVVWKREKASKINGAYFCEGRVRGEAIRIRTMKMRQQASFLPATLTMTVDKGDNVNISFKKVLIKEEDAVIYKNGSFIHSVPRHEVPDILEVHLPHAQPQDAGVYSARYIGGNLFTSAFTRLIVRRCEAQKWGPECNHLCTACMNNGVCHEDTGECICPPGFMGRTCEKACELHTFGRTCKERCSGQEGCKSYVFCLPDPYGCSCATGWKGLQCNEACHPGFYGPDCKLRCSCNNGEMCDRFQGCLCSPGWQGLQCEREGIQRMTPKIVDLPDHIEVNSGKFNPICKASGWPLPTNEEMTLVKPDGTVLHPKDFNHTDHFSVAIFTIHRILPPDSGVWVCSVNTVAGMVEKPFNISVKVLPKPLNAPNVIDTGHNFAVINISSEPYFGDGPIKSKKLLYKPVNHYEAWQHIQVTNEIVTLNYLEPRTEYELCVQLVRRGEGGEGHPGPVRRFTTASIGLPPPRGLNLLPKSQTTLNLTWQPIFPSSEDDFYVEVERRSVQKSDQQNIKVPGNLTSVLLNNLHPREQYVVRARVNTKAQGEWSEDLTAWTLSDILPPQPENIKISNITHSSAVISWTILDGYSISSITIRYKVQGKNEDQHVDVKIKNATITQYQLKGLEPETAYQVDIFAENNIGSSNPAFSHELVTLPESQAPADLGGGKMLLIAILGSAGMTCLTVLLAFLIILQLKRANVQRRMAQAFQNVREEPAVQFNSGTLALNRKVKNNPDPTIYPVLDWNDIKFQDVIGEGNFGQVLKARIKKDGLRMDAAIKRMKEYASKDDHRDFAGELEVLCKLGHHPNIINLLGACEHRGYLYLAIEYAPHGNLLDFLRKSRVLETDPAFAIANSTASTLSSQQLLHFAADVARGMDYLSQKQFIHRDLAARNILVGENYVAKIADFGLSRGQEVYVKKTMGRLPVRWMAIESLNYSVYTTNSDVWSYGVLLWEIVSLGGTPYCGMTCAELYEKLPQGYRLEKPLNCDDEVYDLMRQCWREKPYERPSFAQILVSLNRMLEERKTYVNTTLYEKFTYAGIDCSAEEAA
Procedure, shortened: as §2

FGFR1 = molecular target: T15, FGFR1 (Homo sapiens, UniProt P11362); experiment: Kinase inhibition assay (33P transfer), FGFR1; conditions: read-out: FGFR1-1
T15 construct: Kinases are expressed as either kinase domains or full length constructs; made in house

ErbB4 = molecular target: T16, ErbB4 (Homo sapiens, UniProt Q15303); experiment: Kinase inhibition assay (33P transfer), ErbB4; conditions: read-out: ErbB4-1
T16 construct: Kinases are expressed as either kinase domains or full length constructs; made in house

Lyn = molecular target: T17, Lyn (Homo sapiens, UniProt P07948); experiment: Kinase inhibition assay (33P transfer), Lyn; conditions: Table 6, Lyn-1 kinase inhibition class
T17 construct: Kinases are expressed as either kinase domains or full length constructs; made in house
Procedure, shortened: as §2

Src = molecular target: T18, Src (Homo sapiens, UniProt P12931); experiment: Kinase inhibition assay (33P transfer), Src; conditions: Table 6, Src-1 kinase inhibition class
T18 construct: Kinases are expressed as either kinase domains or full length constructs; made in house
T18 sequence (P12931 whole entry, species assumed, the tested form may be a part): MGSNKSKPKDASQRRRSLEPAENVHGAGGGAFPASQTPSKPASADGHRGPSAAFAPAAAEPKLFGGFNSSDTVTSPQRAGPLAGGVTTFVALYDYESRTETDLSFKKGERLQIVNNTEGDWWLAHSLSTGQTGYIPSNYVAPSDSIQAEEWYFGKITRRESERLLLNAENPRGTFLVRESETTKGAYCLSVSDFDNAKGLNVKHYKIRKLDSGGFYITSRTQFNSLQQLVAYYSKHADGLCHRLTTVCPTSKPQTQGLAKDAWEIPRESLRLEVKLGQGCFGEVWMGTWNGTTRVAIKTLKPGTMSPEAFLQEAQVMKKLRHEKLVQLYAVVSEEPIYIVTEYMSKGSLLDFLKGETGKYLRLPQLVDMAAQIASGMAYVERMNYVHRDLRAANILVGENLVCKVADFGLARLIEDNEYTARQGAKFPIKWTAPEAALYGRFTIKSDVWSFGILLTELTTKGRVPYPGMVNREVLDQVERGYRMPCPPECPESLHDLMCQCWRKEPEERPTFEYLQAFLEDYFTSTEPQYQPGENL
Procedure, shortened: as §2

PDGFRB [2] = molecular target: T19, PDGFRB (Homo sapiens, UniProt P09619); experiment: Kinase inhibition assay (33P transfer), PDGFRB; conditions: read-out: PDGFRB-1
T19 construct: Kinases are expressed as either kinase domains or full length constructs; made in house

IGFR-1 [3] = molecular target: T9, IGFR-1; experiment: Kinase inhibition assay, IGFR-1 (Table 2); conditions: Table 2, kinase inhibition class
PDGFRB [4] = molecular target: T19, PDGFRB; experiment: Kinase inhibition assay (33P transfer), PDGFRB; conditions: read-out: PDGFRB-1; remark: listed apart in the source

| Structure (SMILES) | IC50 (Kdr; Table 3) [µM] | IC50 (Zap-70; Table 3) [µM] | IC50 (AKT) [µM] | IC50 (Itk; Table 3) [µM] | IC50 (EGFR) [µM] | IC50 (c-Met) [µM] | IC50 (Lck; Table 3) [µM] | IC50 (IGFR-1 [1]) [µM] | IC50 (Flt-1) [µM] | IC50 (ErbB2) [µM] | IC50 (Fyn) [µM] | IC50 (Hck-1) [µM] | IC50 (Tek) [µM] | IC50 (FGFR1) [µM] | IC50 (ErbB4) [µM] | IC50 (Lyn) [µM] | IC50 (Src) [µM] | IC50 (PDGFRB [2]) [µM] | also measured |
| --- | --- | --- | --- | --- | --- | --- | --- | --- | --- | --- | --- | --- | --- | --- | --- | --- | --- | --- | --- |
| COc1cc(Nc2ncnc(Nc3ccncc3)n2)cc(OC)c1OC [Compound 39] | > 12.7 | > 12.7 | > 12.7 | > 12.7 | > 12.7 | > 12.7 | > 12.7 | > 12.7 |  |  |  |  |  |  |  |  |  |  | IC50 (EPHB4): > 12.7 µM |
| COc1cc(Nc2ncnc(NC3CC3c3ccccc3)n2)cc(OC)c1OC (centres unmarked) [Compound 428] | 6.1 to 8.9 | > 11.4 | > 11.4 | > 11.4 | < 1.02 | > 11.4 | < 1.02 | 1.02 to 6.1 | > 11.4 | 1.02 to 6.1 | 1.02 to 6.1 | > 11.4 | > 11.4 | 6.1 to 8.9 | 1.02 to 6.1 | < 1.02 | 1.02 to 6.1 | 1.02 to 6.1 |  |
| COc1cc(Nc2ncnc(-n3c(N)nc4ccccc43)n2)cc(OC)c1OCCN1CCOCC1 [Compound 445] | < 0.812 | > 9.14 | > 9.14 | 0.812 to 4.87 | > 9.14 | 0.812 to 4.87 | < 0.812 |  | < 0.812 |  | 0.812 to 4.87 | > 9.14 | 7.11 to 9.14 | < 0.812 | > 9.14 | 0.812 to 4.87 | 0.812 to 4.87 | < 0.812 |  |
| COc1cc(Nc2ncnc(-n3c(NCc4ccccn4)nc4ccccc43)n2)cc(OC)c1OC [Compound 414] | < 0.826 | > 9.29 | > 9.29 | > 9.29 | > 9.29 | > 9.29 | > 9.29 | > 9.29 | < 0.826 | > 9.29 | 0.826 to 4.95 | > 9.29 | > 9.29 | < 0.826 | > 9.29 | > 9.29 | > 9.29 | < 0.826 | IC50 (Kdr): < 0.826 µM; IC50 (IGFR-1 [3]): 7.22 to 9.29 µM; IC50 (Zap-70): > 9.29 µM; IC50 (Itk): > 9.29 µM; IC50 (PDGFRB [4]): < 0.826 µM; IC50 (Lck): 0.826 to 4.95 µM |
| COc1cc(Nc2ncnc(-n3c(NCc4cccnc4)nc4ccccc43)n2)cc(OC)c1OC [Compound 416] | < 0.826 | > 9.29 | > 9.29 | > 9.29 | > 9.29 | > 9.29 | 0.826 to 4.95 |  | 0.826 to 4.95 |  | 7.22 to 9.29 | > 9.29 | > 9.29 | < 0.826 | > 9.29 | 0.826 to 4.95 | 4.95 to 7.22 | < 0.826 |  |
